Measurements: article PMC10837402, “Unnatural amino acid substitutions to improve in vivo stability and tumor uptake of ^68Ga-labeled GRPR-targeted TacBOMB2 derivatives for cancer imaging with positron emission tomography” (EJNMMI Radiopharmacy and Chemistry, 2024)

Legend:
GRPR [1] = biological target: T1, GRPR (Homo sapiens, UniProt P30550); experiment: Fluorometric calcium release assay in PC-3 cells; format: cell-based; conditions: 50 nM ligand
T1 construct: generated using GRPR-expressing PC-3 cells; endogenous in cells; host or cells: PC-3 cells
T1 sequence (P30550 whole entry): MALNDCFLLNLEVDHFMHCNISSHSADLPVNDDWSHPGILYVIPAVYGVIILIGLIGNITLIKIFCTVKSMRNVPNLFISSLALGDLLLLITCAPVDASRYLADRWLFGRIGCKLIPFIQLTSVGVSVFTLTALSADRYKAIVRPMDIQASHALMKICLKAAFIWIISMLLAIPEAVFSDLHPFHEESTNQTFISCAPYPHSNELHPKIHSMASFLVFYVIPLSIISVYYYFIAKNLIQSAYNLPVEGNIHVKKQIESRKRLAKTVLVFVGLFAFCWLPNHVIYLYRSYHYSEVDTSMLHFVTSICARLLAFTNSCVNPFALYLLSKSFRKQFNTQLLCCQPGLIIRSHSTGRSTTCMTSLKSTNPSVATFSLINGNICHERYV
Procedure: The growth medium was removed and replaced with a loading buffer containing a calcium-sensitive dye (FLIPR Calcium 6 assay kit from Molecular Devices, San Jose, CA, USA). After incubated at 37 °C for 30 min, the plates were placed in a FlexStation 3 microplate reader (Molecular Devices). Tested ligands (50 nM) or DPBS (negative control) were added to the cells and the fluorescent signals were acquired for 2 min. Agonistic/antagonistic properties of the tested ligands were determined based on the relative fluorescent unit (RFU = max – min) of their generated fluorescent signals.

GRPR [2] = biological target: T1, GRPR; conditions: vs Ac-Bombesin(7–14); ref Horwell et al. 1996; cited from earlier work
[3] = system: GRPR-expressing PC-3 tumor xenografts; conditions: mouse, in vivo, 1 h; cited from earlier work
GRPR [4] = biological target: T1, GRPR; design: method as in Wang et al. [2023]; conditions: previously reported; ref Wang et al. [2023]; read-out: GRPR binding affinity (Ki); cited from earlier work

**Q.** With `CC(C)C[C@H](NC(=O)[C@H](Cc1c[nH]cn1)N(C)C(=O)CNC(=O)[C@@H](NC(=O)[C@H](C)NC(=O)[C@H](Cc1c[nH]c2c(F)cccc12)NC(=O)[C@H](CCC(N)=O)NC(=O)[C@@H](Cc1ccccc1)NC(=O)CN1CCC(NC(=O)CN2CCN(CC(=O)O)CCN(CC(=O)O)CCN(CC(=O)O)CC2)CC1)C(C)(C)C)C(=O)N1CSC[C@H]1C(N)=O` [Ga-LW02040, Ga-DOTA-Pip-D-Phe-Gln-7-F-Trp-Ala-Tle-Gly-NMe-His-Leu-Thz-NH2] as the compound, how does the “Ca^2+ efflux (relative fluorescence units, RFU = max – min)” value (GRPR [1]) read?
**A.** 242 ± 44.1 RFUs

**Q.** For Ac-[NMe-Gly^11]Bombesin(7–14), which “Reduction in GRPR binding affinity caused by NMe-Gly^11 substitution” value (GRPR [2]) is on record?
**A.** > 30 fold

**Q.** For “Ga-DOTA-Pip-D-Phe-Gln-7-F-Trp-Ala-Val-Gly-His-Leu-Thz-NH2 [Ga-LW02021]”, which “Ca^2+ efflux (relative fluorescence units, RFU = max – min)” value (GRPR [1]) is on record?
**A.** 178 ± 53.7 RFUs

**Q.** For “Ga-DOTA-Pip-D-Phe-Gln-Trp-Ala-Val-Gly-NMe-His-Leu-Thz-NH2 [Ga-LW01107]”, which “Ca^2+ efflux (relative fluorescence units, RFU = max – min)” value (GRPR [1]) is on record?
**A.** 1,004 ± 32.0 RFUs

**Q.** For “[D-Phe^6,Leu-NHEt^13,des-Met^14]Bombesin(6–14) [reference compound]”, which “Ca^2+ efflux (relative fluorescence units, RFU = max – min)” value (GRPR [1]) is on record?
**A.** 38.2 ± 7.20 RFUs

**Q.** Which results are given for “^68Ga-DOTA-Pip-D-Phe^6-Gln^7-Trp^8-Ala^9-Val^10-Gly^11-His^12-Leu^13-Thz^14-NH2 [[^68Ga]Ga-TacBOMB2]”?
**A.** Uptake in PC-3 tumor [3]: 5.95 %ID/g; Uptake in adrenal glands [3]: 0.52 ± 0.11 %ID/g; Uptake in blood [3]: 0.39 ± 0.12 %ID/g; Uptake in bone [3]: 0.26 ± 0.11 %ID/g; Uptake in brain [3]: 0.03 ± 0.01 %ID/g; Uptake in fat [3]: 0.10 ± 0.03 %ID/g; Uptake in heart [3]: 0.14 ± 0.02 %ID/g; Uptake in kidneys [3]: 2.43 ± 0.16 %ID/g; Uptake in liver [3]: 0.29 ± 0.13 %ID/g; Uptake in lungs [3]: 0.39 ± 0.10 %ID/g; Uptake in muscle [3]: 0.13 ± 0.08 %ID/g; Uptake in pancreas [3]: 1.30 ± 0.14 %ID/g; Uptake in small intestine [3]: 0.60 ± 0.12 %ID/g; Uptake in spleen [3]: 0.27 ± 0.10 %ID/g; Uptake in stomach [3]: 0.54 ± 0.27 %ID/g; Uptake in testes [3]: 0.16 ± 0.05 %ID/g; Ki (GRPR [4]): 7.62 nM

**Q.** With bombesin [reference compound] as the compound, how does the “Ca^2+ efflux (relative fluorescence units, RFU = max – min)” value (GRPR [1]) read?
**A.** 450 ± 136 RFUs
